Assay results as given in patent publication US4540699A, “N-Substituted pyridinones having histamine H2 -antagonist activity” (Smith Kline & French Laboratories Limited, priority 1982, dated 1985).

System: histamine H2 -receptors
Test: inhibition of histamine-stimulated gastric acid secretion in urethane-anaesthetised rats after intraduodenal and intravenous injection
Type: in vivo, rat
Conditions: ratio intraduodenal/intravenous dose for 50% inhibition; rats anaesthetised with urethane
Experimental: The inhibition of histamine-stimulated secretion of gastric acid in rats anaesthetised with urethane was measured after administration of test compounds by intraduodenal injection and intravenous injection. For the compound of Example 2 the intraduodenal dose required to produce 50% inhibition was only 3 times the intravenous dose required to produce a similar effect, and for the compound of Example 10 the intraduodenal dose required was 10 times the intravenous dose. In contrast the compound of Example 7 of EP-A-3677 required an intraduodenal dose 500 times that of the intravenous dose required to inhibit acid secretion by 50%. Good activity after intraduodenal injection is indicative that there will good activity after oral administration.

SMILES	intraduodenal dose required to produce 50% inhibition of acid secretion relative to the intravenous dose
Cn1ccc(Cc2cnc(NCCCOc3cccc(CN4CCCCC4)c3)[nH]c2=O)cc1=O [Example 10, 2-[3-[3-(Piperidinomethyl)phenoxy]propylamino]-5-(1-methyl-2-oxopyridin-4-ylmethyl)pyrimidin-4-one]	10 times
CN(C)Cc1ccc(CSCCNc2ncc(Cc3ccn(C)c(=O)c3)c(=O)[nH]2)o1 [Example 2, 2-[2-(2-Dimethylaminomethyl-5-furylmethylthio)ethylamino]-5-(1-methyl-2-oxopyridin-4-ylmethyl)pyrimidin-4-one]	3 times
